Data set [1] can be described thus: DPPH free radical scavenging method. Conditions: concentration causing 50% scavenging of DPPH radical; Trolox standard. The protocol:
The DPPH free radical scavenging activities of 8–14 compounds were determined using the method described before. Alcoholic solution of DPPH (1 mL, […] in methanol) was mixed with 8–14 compound solutions prepared in DMSO. […] DPPH gives a purple color in methanol. This color is decayed by antioxidant. So reduction in the absorbance indicates DPPH• scavenging activity. Trolox was used as standard radical scavenger and values were expressed as SC50 (μg compound per mL), the concentration of the samples that causes 50% scavenging of DPPH radical.
(The DPPH test is a chemical assay of radical scavenging.)

Data set [2] is described as follows: Cupric ion reducing (CUPRAC) method. Conditions: for CUPRAC (mg TEAC/mg): trolox equivalents per mg compound. As for the experimental part: The capacity of 8–14 compounds to reduce cupric ions was established as it was described before. A reaction mixture was prepared by mixing a volume of CuCl2 (0.250 mL, 10 mM), neocuproine (0.250 mL, 7.5 mM in ethanol) and NH4Ac buffer (0.250 mL, 1 M, pH 7.0) with standard/compound solutions at different concentrations. SA blank was prepared by adding sample solution to premixed reaction mixture CuCl2. The absorbances of the blank and sample were read at 450 nm after a 30-min incubation at room temperature. The absorbance of the blank was subtracted from that of the sample. CUPRAC activity was expressed as equivalents of trolox (mg TEAC/mg compound).

The target of another data set is mushroom tyrosinase (Agaricus bisporus, UniProt C7FF04). In words: Mushroom tyrosinase inhibition assay (L-DOPA substrate, 475 nm). The class given is biochemical. The following applies: for IC50 values for the tyrosinase enzyme inhibition: abstract, unit not given; for Tyrosinase (IC50 μg/mL): mushroom tyrosinase, L-DOPA substrate, kojic acid positive control. The protocol: The mushroom tyrosinase inhibition assay was carried out according previously reported method. […] After 10 min of a preincubation period at room temperature, the enzymatic reaction was initiated with the addition of L-DOPA (3 mM, 20 μL) as substrate. The absorbance was read at 475 nm. The compound concentration giving 50% inhibition of tyrosinase activity was determined by interpolation of concentration-response curves. […] The extract concentration giving 50% (IC50) of the original tyrosinase activity was determined.
Sequence of mushroom tyrosinase (C7FF04 1-392): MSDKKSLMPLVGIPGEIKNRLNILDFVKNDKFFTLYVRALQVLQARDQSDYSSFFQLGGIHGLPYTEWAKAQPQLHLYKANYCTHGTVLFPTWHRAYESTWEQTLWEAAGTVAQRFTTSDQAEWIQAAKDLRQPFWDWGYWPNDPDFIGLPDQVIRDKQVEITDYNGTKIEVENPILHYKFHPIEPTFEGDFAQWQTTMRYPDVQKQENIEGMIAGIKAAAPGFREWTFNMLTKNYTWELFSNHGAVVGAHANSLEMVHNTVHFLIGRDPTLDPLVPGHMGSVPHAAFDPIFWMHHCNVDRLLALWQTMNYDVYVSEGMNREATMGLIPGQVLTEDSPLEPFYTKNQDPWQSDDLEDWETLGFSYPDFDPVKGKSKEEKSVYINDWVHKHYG
The position, number and nature of the substituent on benzene and pyridine rings were varied in order to identify the most appropriate group.

On the set-up of data set [3]: method as in PMID 33763478. The following applies: comparator in literature study; cited from earlier work.

For orientation: melting point means the temperature of the solid-liquid transition.

In turn, `COc1ccccc1-c1cc(-c2ccc(OC)c(OC)c2OC)on1` [Compound 8, 3-(2-methoxyphenyl)-5-(2,3,4-trimethoxyphenyl)isoxazole] displayed a melting point of 102 to 103 °C. The “DPPH, SC50” value in data set [1] stood at 61.42 ± 1.41 µg/mL. In addition, in data set [2], the “CUPRAC (mg TEAC/mg)” value is listed as 1.156 ± 0.026 mg TEAC/mg.

The molecule `COc1ccc(-c2cc(-c3ccc(OC)cc3OC)on2)cc1` [Compound 9, 3-(4-methoxyphenyl)-5-(2,4-dimethoxyphenyl)isoxazole] had a melting point of 93 to 94 °C. Moreover, at mushroom tyrosinase, the “IC50 values for the tyrosinase enzyme inhibition” value is on record as “did not show any inhibition effect” and the “Tyrosinase (IC50 μg/mL)” value was “No inhibition”. Besides, the “DPPH, SC50” value in data set [1] came out at 71.96 ± 2.36 µg/mL. Also, the “CUPRAC (mg TEAC/mg)” value in data set [2] came to 0.856 ± 0.013 mg TEAC/mg.

For the molecule `Oc1cccc(-c2cc(-c3ccccc3)on2)c1` [Compound 10, 3-(3-hydroxyphenyl)-5-(phenyl)isoxazole], the melting point is 230 to 231 °C. Further, on mushroom tyrosinase, the “IC50 values for the tyrosinase enzyme inhibition” value was “did not show any inhibition effect” and the “Tyrosinase (IC50 μg/mL)” value is on record as “No inhibition”. Also, the “DPPH, SC50” value in data set [1] was found to be 65.65 ± 1.69 µg/mL. Also, the “CUPRAC (mg TEAC/mg)” value in data set [2] is reported as 0.789 ± 0.009 mg TEAC/mg.

Molecule `COc1ccc(-c2cc(-c3cccc(O)c3)no2)c(OC)c1` [Compound 11, 3-(3-hydroxyphenyl)-5-(2,4-dimethoxyphenyl)isoxazole] displayed a melting point of 168 to 169 °C. In addition, the “DPPH, SC50” value in data set [1] came to 81.52 ± 3.66 µg/mL. The “CUPRAC (mg TEAC/mg)” value in data set [2] amounted to 0.584 ± 0.011 mg TEAC/mg.

For `COc1ccc(OC)c(-c2cc(-c3ccc(O)cc3)no2)c1` [Compound 12, 3-(4-hydroxyphenyl)-5-(2,5-dimethoxyphenyl)isoxazole], the melting point was in the range of 176 to 178 °C. The “DPPH, SC50” value in data set [1] stood at 40.21 ± 2.71 µg/mL. For the same molecule, the “CUPRAC (mg TEAC/mg)” value in data set [2] is given as 1.233 ± 0.015 mg TEAC/mg.

Take `COc1cccc(-c2cc(-c3ccccn3)on2)c1` [Compound 13, 3-(3-methoxyphenyl)-5-(2-pyridinyl)isoxazole]: the “DPPH, SC50” value in data set [1] is 57.32 ± 2.12 µg/mL. This molecule also had a CUPRAC values in data set [2] (as printed in the results text b37) of 1.25 ± 0.019 mg TEAC/mg. Also, the “CUPRAC (mg TEAC/mg)” value in data set [2] was 1.245 ± 0.019 mg TEAC/mg.

`COc1ccc(-c2cc(-c3ccncc3)on2)cc1` [Compound 14, 3-(4-methoxyphenyl)-5-(4-pyridinyl)isoxazole] yielded a melting point of 141 to 143 °C. On mushroom tyrosinase, the “IC50 values for the tyrosinase enzyme inhibition” value is listed as “did not show any inhibition effect” and the “Tyrosinase (IC50 μg/mL)” value is recorded as “No inhibition”. The “DPPH, SC50” value in data set [1] amounted to 54.41 ± 2.87 µg/mL. In addition, the “CUPRAC (mg TEAC/mg)” value in data set [2] was 1.189 ± 0.021 mg TEAC/mg.

As to `Cc1c(C)c2c(c(C)c1O)CCC(C)(C(=O)O)O2` (centres unmarked) [Trolox, reference compound], in data set [1], the “DPPH, SC50” value is 5.56 ± 0.85 µg/mL. Also, the “antioxidant activity in DPPH assay IC50” value in data set [3] is 2.75 µg/mL.
